The text below walks through data of US20230348437A1, “COMPOUNDS, COMPOSITIONS AND METHODS” (Denali Therapeutics Inc., priority 2020, published 2023).

Assay [1] has as its system NLRP3 (IL-1β release from THP-1 cells). The assay can be described thus: IL-1β detection in IFN-γ differentiated THP-1 cells, LPS induction and ATP, 96 well format. The format is cell-based. Particulars: Homo sapiens, IFN-γ 25 ng/mL, LPS 50 ng/mL, ATP 5 mM, IL-1β ELISA, read-out: Activity (IC50 class). As for the experimental part: Compounds as provided herein were tested in the following assay. Cell culture medium employed contained RPMI 1640 medium (89%), FBS (10%), Pen/Strep (1%), and 2-mercaptoethanol (0.05 mM). Freezing medium was made up of 90% FBS and 10% DMSO. THP-1 cells were removed from the liquid nitrogen and placed into a 37° C. water bath to thaw, until signs of ice dissipated. The cells were then added to 9 mL of warm cell culture medium and centrifuged for 5 minutes at 1000 rpm. The supernatant was discarded, and the cells were resuspended in new cell culture medium. The THP-1 cells were then split and cultured in the cell culture medium, being passaged every 2-3 days (5×10^5 cells/mL passaged every two days, 3×10^5 cells/mL passaged every three days). Cell density was maintained between 5×10^5-1.5×10^6 viable cells/mL.
To freeze, cells were resuspended with fresh freezing medium, adjusting the cell density to between 3×10^6-10×10^6 cells/mL. The cell suspension was partitioned into 1 mL aliquots per vial, and the vials were transferred to a -80° C. freezer. After one day at -80° C., the cell vials were transferred to liquid nitrogen freezer for storage.
PBST solution was prepared by mixing 3600 mL of water, 400 mL of 10X PBS, and 4 mL of Tween 20. IFN-γ solution was reconstituted with 100 µL of water to obtain a 1 mg/mL solution, which was then diluted with 0.1 % BSA to provide a 100 ng/mL solution. The IFN-γ solution was stored at -20° C. LPS was reconstituted with 1 mL of PBS solution to obtain a 1 mg/mL stock solution, which was further diluted to 50 ng/mL with serum-free medium. The LPS solution was stored at 4° C.
The 96 well plates were then incubated at 37° C. under a humidified atmosphere of 5% CO2 for 24 h.
LPS induction: When IFN-γ treatment was completed, the supernatants were discarded by hand. 100 µL of a 1X solution of LPS in serum-free medium (50 ng/mL) was added. The plates were incubated in a 37° C. incubator under a humidified atmosphere of 5% CO2 for 4 h. Sample compounds were dissolved in DMSO and the compound solutions were dispensed to the wells using a Tecan D300e digital dispenser. The final concentration of DMSO for each well was 0.5%. The plates were then incubated at 37° C. under a humidified atmosphere of 5% CO2 for 1 h. 20 µL of a 6X solution of ATP was added (final concentration per well: 5 mM), and the plates incubated at 37° C. under a humidified atmosphere of 5% CO2 for 1 h. The supernatants were then collected and analyzed using an IL-Iβ detection kit. If needed, the test samples could be stored at -20° C. until analyzed.
Compound dilution: Compound solution source plates (20 µL of a 10 mM solution of each compound was delivered to the specified wells and stored in a nitrogen cabinet until tested.
Coat Elisa plate: The captured antibody (mAb Mt175) was diluted in PBS to a concentration of 2 µg/mL, and then used to coat the ELISA plate (SIGMA-P6366) overnight at 4° C.
The antibody coat was discarded and the plate was washed 4 times with PBST. The plate was blocked by adding 25 µL/well of blocking buffer (LiCor-927-40000) with 0.1% Tween 20, then incubated for 1 h at room temperature. The blocking buffer was then discarded and the plate was washed 4 times with PBST.
One hour before test sample addition, the sample plates were allowed to thaw at room temperature, centrifuged at 1000 rpm for 1 minute, and shaken for 30 seconds. 25 µL/well of the test samples were transferred to the ELISA plate, and the plate was incubated for 2 h at room temperature.
The test samples were discarded and the ELISA plate was washed 4 times with PBST. 15 µL/well of mAb7P10-biotin at 0.5 µg/mL (1:1000) in blocking buffer was then added to the ELISA plate and it was incubated for 1 h at room temperature.
The antibody was discarded and the ELISA plate was washed 4 times with PBST. Then 15 µL/well of streptavidin-HRP diluted 1:1000 in blocking buffer was added to the ELISA plate and it was allowed to incubate for 1 h at room temperature.
(In general: In an ELISA, binding on a coated surface is turned into a signal by an enzyme label.)

Assay [2] deals with NLRP3 (IL-1β secretion from THP-1 cells). The assay can be described thus: IL-1β secretion assay in 384-well plates, PMA differentiated THP-1 cells, LPS and nigericin stimulation. In kind it is cell-based. As to conditions: Homo sapiens; THP-1 cells, PMA 5 ng/mL, LPS 25 ng/mL, nigericin, IL-1β ELISA, 384-well; read-out: Activity.

With `CCc1nn(CC(=O)N[C@H]2C[C@@](C)(O)C2)c(=O)cc1-c1ccccc1` [Example 3, 2-(3-Ethyl-6-oxo-4-phenylpyridazin-1(6H)-yl)-N-(cis-3-hydroxy-3-methylcyclobutyl)acetamide], the figures for the IC50 in assay [1] and in assay [2] were < 10 µM and 6.77 µM, respectively.
Consider `CC(C)c1nn(CC(=O)N[C@H]2C[C@@](C)(O)C2)c(=O)cc1-c1cccc(Cl)c1Cl` [Example 15, 2-(4-(2,3-dichlorophenyl)-3-isopropyl-6-oxopyridazin-1(6H)-yl)-N-(cis-3-hydroxy-3-methylcyclobutyl)acet amide], for which the IC50 was < 10 µM in assay [1] and 3.51 µM in assay [2].
Take `CC(C)c1nn(CC(=O)N[C@H]2C[C@@](C)(O)C2)c(=O)cc1-c1cccc(C(F)(F)F)c1` [Example 13, N-(cis-3-hydroxy-3-methylcyclobutyl)-2-(3-isopropyl-6-oxo-4-(3-(trifluoromethyl)pheny 1)pyridazin-1(6H)-yl)acetamide]: the IC50 in assay [1] is < 10 µM; in assay [2], 21.8 µM.
For `CC(C)c1nn(CC(=O)N[C@H]2C[C@@](C)(O)C2)c(=O)cc1-c1cccc(Br)c1` [Example 14, 2-(4-(3-bromophenyl)-3-isopropyl-6-oxopyridazin-1(6H)-yl)-N-(cis-3-hydroxy-3-methylcyclobutyl)acetamide] the same measures were < 10 µM and 1.49 µM.
